What all share (settings): binder
Assay [1] addresses MST3 (Homo sapiens, UniProt Q9Y6E0).
Assay [2] addresses T1, MST1 (Homo sapiens, UniProt Q13043).
T1 sequence (Q13043 1-487): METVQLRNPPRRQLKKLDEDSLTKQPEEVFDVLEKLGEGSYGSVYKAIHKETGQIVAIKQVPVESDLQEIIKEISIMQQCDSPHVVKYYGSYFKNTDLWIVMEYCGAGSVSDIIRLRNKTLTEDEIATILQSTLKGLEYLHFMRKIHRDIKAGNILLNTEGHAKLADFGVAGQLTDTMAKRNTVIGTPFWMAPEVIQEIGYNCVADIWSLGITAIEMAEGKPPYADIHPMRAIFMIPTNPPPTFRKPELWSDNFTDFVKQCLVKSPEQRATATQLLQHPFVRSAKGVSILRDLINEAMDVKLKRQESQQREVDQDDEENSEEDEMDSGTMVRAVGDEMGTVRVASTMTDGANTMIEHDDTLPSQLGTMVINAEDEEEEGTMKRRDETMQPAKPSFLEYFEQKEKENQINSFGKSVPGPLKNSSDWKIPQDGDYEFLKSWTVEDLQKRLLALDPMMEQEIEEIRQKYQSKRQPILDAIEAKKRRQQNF

The target of assay [3] is PAK1 (Homo sapiens, UniProt Q13153).
The target of assay [4] is MST4 (Homo sapiens, UniProt Q9P289).
Assay [5] addresses T2, MST2 (Homo sapiens, UniProt Q13188).
T2 sequence (Q13188 1-491): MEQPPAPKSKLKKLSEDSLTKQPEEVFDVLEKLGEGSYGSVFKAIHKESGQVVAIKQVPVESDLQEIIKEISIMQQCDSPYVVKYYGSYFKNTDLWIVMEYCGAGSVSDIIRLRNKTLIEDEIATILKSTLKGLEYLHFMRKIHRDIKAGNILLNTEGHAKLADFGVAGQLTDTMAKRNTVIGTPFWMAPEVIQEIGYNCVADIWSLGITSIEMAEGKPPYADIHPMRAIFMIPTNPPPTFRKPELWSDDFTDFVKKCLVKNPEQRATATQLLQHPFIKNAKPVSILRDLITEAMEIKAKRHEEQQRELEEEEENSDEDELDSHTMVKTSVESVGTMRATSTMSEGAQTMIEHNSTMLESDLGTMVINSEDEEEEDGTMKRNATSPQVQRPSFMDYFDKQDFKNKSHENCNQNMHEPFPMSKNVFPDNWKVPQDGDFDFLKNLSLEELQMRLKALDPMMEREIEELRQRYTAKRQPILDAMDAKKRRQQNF

Sequence of MST4 (Q9P289 whole entry): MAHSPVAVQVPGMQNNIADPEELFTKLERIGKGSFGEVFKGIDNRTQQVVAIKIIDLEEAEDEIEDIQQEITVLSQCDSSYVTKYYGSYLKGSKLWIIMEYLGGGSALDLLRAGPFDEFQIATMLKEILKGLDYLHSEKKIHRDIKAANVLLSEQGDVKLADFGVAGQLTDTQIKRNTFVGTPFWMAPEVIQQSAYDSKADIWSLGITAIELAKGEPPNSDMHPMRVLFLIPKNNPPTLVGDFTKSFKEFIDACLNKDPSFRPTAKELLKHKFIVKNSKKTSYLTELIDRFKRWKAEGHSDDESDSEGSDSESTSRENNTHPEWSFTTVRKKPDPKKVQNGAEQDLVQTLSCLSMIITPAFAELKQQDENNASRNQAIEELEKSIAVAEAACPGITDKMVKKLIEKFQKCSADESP
Sequence of PAK1 (Q13153 whole entry): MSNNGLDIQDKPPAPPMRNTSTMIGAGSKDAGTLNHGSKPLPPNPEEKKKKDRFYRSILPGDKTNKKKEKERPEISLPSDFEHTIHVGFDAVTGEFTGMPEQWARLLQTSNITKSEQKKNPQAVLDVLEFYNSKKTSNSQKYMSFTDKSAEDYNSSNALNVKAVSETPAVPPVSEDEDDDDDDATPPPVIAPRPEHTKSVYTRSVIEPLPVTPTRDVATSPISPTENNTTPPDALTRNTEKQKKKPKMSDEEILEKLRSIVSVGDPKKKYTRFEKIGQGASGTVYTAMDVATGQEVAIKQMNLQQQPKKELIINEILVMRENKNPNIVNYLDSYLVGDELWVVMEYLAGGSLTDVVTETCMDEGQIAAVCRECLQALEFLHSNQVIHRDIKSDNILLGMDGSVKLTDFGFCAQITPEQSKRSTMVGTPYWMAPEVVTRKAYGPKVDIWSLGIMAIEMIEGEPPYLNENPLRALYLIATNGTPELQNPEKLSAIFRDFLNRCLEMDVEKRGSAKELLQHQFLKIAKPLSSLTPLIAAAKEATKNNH
Sequence of MST3 (Q9Y6E0 whole entry): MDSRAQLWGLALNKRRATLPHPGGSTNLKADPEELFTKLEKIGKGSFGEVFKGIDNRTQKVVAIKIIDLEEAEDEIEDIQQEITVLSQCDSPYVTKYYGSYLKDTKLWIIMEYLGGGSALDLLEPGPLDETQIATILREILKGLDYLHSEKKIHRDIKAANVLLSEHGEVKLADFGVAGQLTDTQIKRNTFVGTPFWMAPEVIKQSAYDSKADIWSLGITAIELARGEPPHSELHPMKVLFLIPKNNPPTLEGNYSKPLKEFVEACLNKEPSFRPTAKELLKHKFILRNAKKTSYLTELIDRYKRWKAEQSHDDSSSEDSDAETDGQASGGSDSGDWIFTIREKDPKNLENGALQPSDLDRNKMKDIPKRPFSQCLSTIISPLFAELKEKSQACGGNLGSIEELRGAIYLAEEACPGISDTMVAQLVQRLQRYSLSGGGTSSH

In the case of `CNc1ncc2cc(-c3ccc(-c4cccc(C)n4)cc3Cl)c(=O)n(CCN)c2n1` [compound 18, 8-(2-Aminoethyl)-6-(2-chloro-4-(6-methylpyridin-2-yl)phenyl)-2-(methylamino)pyrido[2,3-d]pyrimidin-7(8H)-one], the “dTm MST3” value in assay [1] turned out to be 5.5 °C. In addition, the “dTm MST1” value in assay [2] was determined as 1.6 °C. In addition, the “dTm PAK1” value in assay [3] worked out at 1.3 °C. Also, in assay [4], the “dTm MST4” value is 3.3 °C. In addition, the “dTm MST2” value in assay [5] was found to be 1.6 °C.

As for `CNc1ncc2cc(-c3ccc(-c4cccc(C)n4)cc3Cl)c(=O)n(CCCCO)c2n1` [compound 16, 6-(2-Chloro-4-(6-methylpyridin-2-yl)phenyl)-8-(4-hydroxybutyl)-2-(methylamino)-pyrido[2,3-d]pyrimidin-7(8H)-one], in assay [1], the “dTm MST3” value was 5.7 °C. In assay [2], the “dTm MST1” value is 3.8 °C. In addition, the “dTm PAK1” value in assay [3] came to 5.0 °C. In addition, in assay [4], the “dTm MST4” value amounted to 5.0 °C. Further, the “dTm MST2” value in assay [5] was found to be 7.1 °C.

For `CNc1ncc2cc(-c3ccc(-c4cccc(C)n4)cc3Cl)c(=O)n(CCO)c2n1` [compound 14, 6-(2-Chloro-4-(6-methylpyridin-2-yl)phenyl)-8-(2-hydroxyethyl)-2-(methylamino)-pyrido[2,3-d]pyrimidin-7(8H)-one], the “dTm MST3” value in assay [1] was found to be 7.8 °C. The “dTm MST1” value in assay [2] was 4.0 °C. In addition, in assay [3], the “dTm PAK1” value amounted to 5.0 °C. In assay [4], the “dTm MST4” value stood at 5.8 °C. Also, the “dTm MST2” value in assay [5] turned out to be 9.0 °C.

Regarding `CNc1ncc2cc(-c3ccc(-c4cccc(C)n4)cc3Cl)c(=O)n(CCOC)c2n1` [compound 11, 6-(2-Chloro-4-(6-methylpyridin-2-yl)phenyl)-8-(2-methoxyethyl)-2-(methylamino)-pyrido[2,3-d]pyrimidin-7(8H)-one], the “dTm MST3” value in assay [1] is 6.7 °C. Also, the “dTm MST1” value in assay [2] is 3.9 °C. For the same molecule, the “dTm PAK1” value in assay [3] came to 4.1 °C. Further, the “dTm MST4” value in assay [4] turned out to be 4.4 °C. In addition, in assay [5], the “dTm MST2” value was 5.0 °C.

Turning to `CNc1ncc2cc(-c3ccc(-c4cccc(C)n4)cc3Cl)c(=O)n(C)c2n1` [compound 10, 6-(2-Chloro-4-(6-methylpyridin-2-yl)phenyl)-8-methyl-2-(methylamino)pyrido[2,3-d]pyrimidin-7(8H)-one], the “dTm MST3” value in assay [1] was found to be 3.7 °C. Besides, in assay [2], the “dTm MST1” value turned out to be 1.6 °C. For the same molecule, the “dTm PAK1” value in assay [3] stood at 3.2 °C. In addition, the “dTm MST4” value in assay [4] was 1.6 °C. The “dTm MST2” value in assay [5] was found to be 1.3 °C.

Consider `CNc1ncc2cc(-c3ccc(-c4cccc(C)n4)cc3Cl)c(O)nc2n1` [compound 9, 6-(2-Chloro-4-(6-methylpyridin-2-yl)phenyl)-2-(methylamino)pyrido[2,3-d]pyrimidin-7-ol], for which, in assay [1], the “dTm MST3” value came to 0.6 °C. The “dTm MST2” value in assay [5] stood at 0.3 °C.

For the molecule `CNc1ncc2cc(-c3ccc(-c4cccc(C)n4)cc3Cl)c(=O)n(CCCCCN)c2n1` [compound 21, 8-(5-Aminopentyl)-6-(2-chloro-4-(6-methylpyridin-2-yl)phenyl)-2-(methylamino)-pyrido[2,3-d]pyrimidin-7(8H)-one], the “dTm MST3” value in assay [1] is 9.2 °C. The “dTm MST1” value in assay [2] was found to be 5.2 °C. In assay [3], the “dTm PAK1” value turned out to be 6.3 °C. Further, the “dTm MST4” value in assay [4] came out at 7.1 °C. Besides, the “dTm MST2” value in assay [5] was found to be 10.7 °C.

Regarding `CNc1ncc2cc(-c3ccc(-c4cccc(C)n4)cc3Cl)c(=O)n(CCCCCO)c2n1` [compound 17, 6-(2-Chloro-4-(6-methylpyridin-2-yl)phenyl)-8-(5-hydroxypentyl)-2-(methylamino)-pyrido[2,3-d]pyrimidin-7(8H)-one], the “dTm MST3” value in assay [1] is 6.6 °C. Also, the “dTm MST1” value in assay [2] came to 2.4 °C. Further, in assay [3], the “dTm PAK1” value was determined as 6.0 °C. Moreover, in assay [4], the “dTm MST4” value was determined as 5.5 °C. Moreover, the “dTm MST2” value in assay [5] was found to be 6.1 °C.

`CNc1ncc2cc(-c3ccc(-c4cccc(C)n4)cc3Cl)c(=O)n(CCCO)c2n1` [compound 15, 6-(2-Chloro-4-(6-methylpyridin-2-yl)phenyl)-8-(3-hydroxypropyl)-2-(methylamino)-pyrido[2,3-d]pyrimidin-7(8H)-one]: the “dTm MST3” value in assay [1] was 6.2 °C. For the same molecule, in assay [2], the “dTm MST1” value worked out at 3.4 °C. For the same molecule, in assay [3], the “dTm PAK1” value turned out to be 4.5 °C. Also, in assay [4], the “dTm MST4” value came out at 5.0 °C. For the same molecule, in assay [5], the “dTm MST2” value was found to be 6.3 °C.

On to `CNc1ncc2cc(-c3ccc(-c4cccc(C)n4)cc3Cl)c(=O)n(CCCCOC)c2n1` [compound 13, 6-(2-Chloro-4-(6-methylpyridin-2-yl)phenyl)-8-(4-methoxybutyl)-2-(methylamino)-pyrido[2,3-d]pyrimidin-7(8H)-one], for which the “dTm MST3” value in assay [1] worked out at 6.2 °C. In addition, the “dTm MST1” value in assay [2] is 3.3 °C. For the same molecule, the “dTm PAK1” value in assay [3] came to 4.8 °C. For the same molecule, the “dTm MST4” value in assay [4] stood at 3.6 °C. Moreover, the “dTm MST2” value in assay [5] was 8.6 °C.

On to `CNc1ncc2cc(-c3ccc(-c4cccc(C)n4)cc3Cl)c(=O)n(CCCOC)c2n1` [compound 12, 6-(2-Chloro-4-(6-methylpyridin-2-yl)phenyl)-8-(3-methoxypropyl)-2-(methylamino)-pyrido[2,3-d]pyrimidin-7(8H)-one], for which, in assay [1], the “dTm MST3” value was determined as 5.1 °C. In addition, in assay [2], the “dTm MST1” value came out at 3.6 °C. Further, the “dTm PAK1” value in assay [3] was determined as 5.1 °C. Also, the “dTm MST4” value in assay [4] came to 4.1 °C. In addition, the “dTm MST2” value in assay [5] worked out at 6.2 °C.

For the molecule `CNc1ncc2cc(-c3ccc(-c4cccc(C)n4)cc3Cl)c(=O)n(CCCN)c2n1` [compound 19, 8-(3-Aminopropyl)-6-(2-chloro-4-(6-methylpyridin-2-yl)phenyl)-2-(methylamino)-pyrido[2,3-d]pyrimidin-7(8H)-one], the “dTm MST3” value in assay [1] amounted to 7.9 °C. In assay [2], the “dTm MST1” value stood at 2.8 °C. Besides, the “dTm PAK1” value in assay [3] turned out to be 4.0 °C. Also, the “dTm MST4” value in assay [4] is 7.2 °C. In assay [5], the “dTm MST2” value amounted to 4.4 °C.

For the origin of these results see doi:10.1101/2023.11.24.568596v1 (biorxiv, 2023).
